Measured values taken from the supplement of paper PMC10307832.

The cell lines below were run with CC1(COc2ccc3c(c2)ncn3-c2ccc3cccc(N4CCC(N)CC4)c3n2)COC1 [Crenolanib] + O=C(CCCCCCC(=O)Nc1ccccc1)NO [Vorinostat] (partner 1 µM) (assay: relative viability (nuclei count vs DMSO), 5 days (fraction); higher = more cells survive). Details: first compound 1 µM.
How it was run: (§1)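 Medians of duplicate plates are given as relative viability. That measure is the nuclei count in treated wells divided by the count in vehicle wells. Counts were taken on 4× images of lung cancer cell lines in 1536-well plates, 5 days after pin-tool dosing the day after seeding with one drug alone or a fixed anchor-drug dose plus five library-drug doses (not always all listed) in √10 steps.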
Work on LCLC-97TM1 yielded a relative viability of 0.536.
In the case of NCI-H596, the relative viability is reported as 0.594.
Work on NCI-H2228 yielded a relative viability of 0.871.
EMC-BAC-2 showed a relative viability of 0.303.
In the case of NCI-H2087, the relative viability is reported as 0.877.
Work on HCC-44 yielded a relative viability of 1.05.
NCI-H647 gave a relative viability of 0.722.
In the case of LK-2, the relative viability is reported as 0.311.
For NCI-H2126, the relative viability was 0.684.
NCI-H2342 showed a relative viability of 0.691.
SK-MES-1 was tested, and the relative viability was 1.05.
With HARA the relative viability was 0.502.
Work on COR-L23 yielded a relative viability of 0.476.
In the case of COR-L 105, the relative viability is reported as 0.922.
LC-2-ad gave a relative viability of 0.679.
Work on LU99A yielded a relative viability of 0.455.
ChaGo-K-1 gave a relative viability of 0.793.
NCI-H2170 was tested, and the relative viability was 0.793.
NCI-H3122 showed a relative viability of 0.796.
Work on IA-LM yielded a relative viability of 0.678.
Cell Line HCC-78 has a relative viability of 0.386.
SW 900 showed a relative viability of 0.435.
For LXF-289, the relative viability was 0.637.
For BEN, the relative viability was 0.555.
In the case of HCC-15, the relative viability is reported as 0.775.
NCI-H1648 showed a relative viability of 0.433.
With HCC-827 the relative viability was 0.753.
With HCC-366 the relative viability was 0.216.

These cell lines were tested with O=C1NC(=O)[C@@H](c2cn3c4c(cccc24)CCC3)[C@@H]1c1c[nH]c2ccccc12 [Tivantinib] + Cc1cc(Nc2cc(N3CCN(C)CC3)nc(Sc3ccc(NC(=O)C4CC4)cc3)n2)n[nH]1 [Tozasertib] (partner 0.1 µM) in the same assay as above. Details: first compound 0.01 µM.
How it was run: as §1
For NCI-H522, the relative viability was 0.636.
With NCI-H1623 the relative viability was 0.388.
For NCI-H838, the relative viability was 0.26.
Cell Line NCI-H1651 has a relative viability of 0.617.
Cell Line NCI-H1734 has a relative viability of 0.273.
In the case of NCI-H2009, the relative viability is reported as 0.734.
EPLC-272H showed a relative viability of 0.206.
In the case of PC-14, the relative viability is reported as 0.635.
LCLC-97TM1 gave a relative viability of 0.25.
With NCI-H596 the relative viability was 1.05.
EMC-BAC-2 showed a relative viability of 0.276.
Cell Line NCI-H2087 has a relative viability of 0.311.
HCC-44 showed a relative viability of 0.968.
NCI-H647 gave a relative viability of 0.38.
In the case of LK-2, the relative viability is reported as 0.177.
For NCI-H2126, the relative viability was 0.91.
NCI-H2342 gave a relative viability of 0.556.
SK-MES-1 gave a relative viability of 0.903.
HARA showed a relative viability of 0.122.
Cell Line COR-L23 has a relative viability of 0.185.
Work on COR-L 105 yielded a relative viability of 0.32.
Work on LC-2-ad yielded a relative viability of 0.455.
Cell Line LU99A has a relative viability of 0.261.
ChaGo-K-1 showed a relative viability of 0.205.
Work on NCI-H2170 yielded a relative viability of 0.771.
In the case of NCI-H3122, the relative viability is reported as 0.409.
HCC-78 was tested, and the relative viability was 0.443.
SW 900 gave a relative viability of 0.642.
Work on LXF-289 yielded a relative viability of 0.176.
Work on BEN yielded a relative viability of 0.529.
HCC-15 was tested, and the relative viability was 0.463.
NCI-H1648 was tested, and the relative viability was 0.71.
With HCC-827 the relative viability was 0.388.
In the case of HCC-366, the relative viability is reported as 0.103.

Same assay, conditions: first compound 0.03162 µM
NCI-H522 was tested, and the relative viability was 0.463.
Work on NCI-H1623 yielded a relative viability of 0.424.
NCI-H838 gave a relative viability of 0.273.
NCI-H1651 was tested, and the relative viability was 0.678.
NCI-H1734 was tested, and the relative viability was 0.278.
In the case of NCI-H2009, the relative viability is reported as 0.696.
For EPLC-272H, the relative viability was 0.268.
PC-14 gave a relative viability of 0.558.
LCLC-97TM1 gave a relative viability of 0.218.
NCI-H596 showed a relative viability of 0.819.
NCI-H2228 showed a relative viability of 0.356.
EMC-BAC-2 was tested, and the relative viability was 0.271.
In the case of NCI-H2087, the relative viability is reported as 0.257.
With HCC-44 the relative viability was 0.712.
Cell Line NCI-H647 has a relative viability of 0.265.
NCI-H2126 showed a relative viability of 0.785.
In the case of NCI-H2342, the relative viability is reported as 0.51.
SK-MES-1 was tested, and the relative viability was 0.904.
With HARA the relative viability was 0.12.
Cell Line COR-L23 has a relative viability of 0.188.
For COR-L 105, the relative viability was 0.414.
Work on LC-2-ad yielded a relative viability of 0.409.
For LU99A, the relative viability was 0.276.
For ChaGo-K-1, the relative viability was 0.219.
Cell Line NCI-H2170 has a relative viability of 0.619.
Work on NCI-H3122 yielded a relative viability of 0.36.
HCC-78 was tested, and the relative viability was 0.437.
Work on SW 900 yielded a relative viability of 0.577.
LXF-289 gave a relative viability of 0.129.
Work on BEN yielded a relative viability of 0.549.
HCC-15 was tested, and the relative viability was 0.442.
With NCI-H1648 the relative viability was 0.385.
HCC-827 was tested, and the relative viability was 0.402.
With HCC-366 the relative viability was 0.114.

Same assay, conditions: first compound 0.1 µM
For NCI-H522, the relative viability was 0.536.
NCI-H1623 was tested, and the relative viability was 0.441.
NCI-H838 showed a relative viability of 0.262.
NCI-H1651 was tested, and the relative viability was 0.672.
Cell Line NCI-H1734 has a relative viability of 0.252.
NCI-H2009 showed a relative viability of 0.755.
Work on EPLC-272H yielded a relative viability of 0.283.
PC-14 showed a relative viability of 0.594.
For LCLC-97TM1, the relative viability was 0.25.
NCI-H596 gave a relative viability of 0.929.
With NCI-H2228 the relative viability was 0.221.
For EMC-BAC-2, the relative viability was 0.136.
NCI-H2087 was tested, and the relative viability was 0.235.
In the case of HCC-44, the relative viability is reported as 0.887.
For NCI-H647, the relative viability was 0.306.
Work on LK-2 yielded a relative viability of 0.199.
NCI-H2126 showed a relative viability of 0.831.
NCI-H2342 showed a relative viability of 0.51.
SK-MES-1 showed a relative viability of 0.824.
Cell Line HARA has a relative viability of 0.104.
For COR-L23, the relative viability was 0.184.
COR-L 105 gave a relative viability of 0.397.
For LC-2-ad, the relative viability was 0.393.
In the case of LU99A, the relative viability is reported as 0.266.
ChaGo-K-1 showed a relative viability of 0.218.
Cell Line NCI-H2170 has a relative viability of 0.749.
Work on NCI-H3122 yielded a relative viability of 0.508.
Work on HCC-78 yielded a relative viability of 0.405.
With SW 900 the relative viability was 0.636.
In the case of LXF-289, the relative viability is reported as 0.202.
For BEN, the relative viability was 0.574.
HCC-15 was tested, and the relative viability was 0.409.
With NCI-H1648 the relative viability was 0.425.
Work on HCC-827 yielded a relative viability of 0.48.
Work on HCC-366 yielded a relative viability of 0.115.

Same assay, conditions: first compound 0.3162 µM
In the case of NCI-H522, the relative viability is reported as 0.491.
Work on NCI-H838 yielded a relative viability of 0.322.
Work on NCI-H1651 yielded a relative viability of 0.71.
Work on NCI-H1734 yielded a relative viability of 0.247.
NCI-H2009 gave a relative viability of 0.651.
With EPLC-272H the relative viability was 0.152.
In the case of PC-14, the relative viability is reported as 0.379.
LCLC-97TM1 showed a relative viability of 0.218.
Cell Line NCI-H596 has a relative viability of 0.799.
For NCI-H2228, the relative viability was 0.214.
With EMC-BAC-2 the relative viability was 0.261.
For NCI-H2087, the relative viability was 0.3.
HCC-44 showed a relative viability of 0.275.
With NCI-H647 the relative viability was 0.137.
LK-2 showed a relative viability of 0.191.
In the case of NCI-H2126, the relative viability is reported as 0.538.
Cell Line NCI-H2342 has a relative viability of 0.394.
Work on SK-MES-1 yielded a relative viability of 0.862.
HARA showed a relative viability of 0.0992.
COR-L23 showed a relative viability of 0.234.
COR-L 105 was tested, and the relative viability was 0.383.
With LC-2-ad the relative viability was 0.313.
In the case of LU99A, the relative viability is reported as 0.291.
With ChaGo-K-1 the relative viability was 0.218.
NCI-H3122 showed a relative viability of 0.146.
For HCC-78, the relative viability was 0.277.
SW 900 was tested, and the relative viability was 0.576.
Work on LXF-289 yielded a relative viability of 0.204.
BEN showed a relative viability of 0.537.
For HCC-15, the relative viability was 0.335.
Cell Line HCC-827 has a relative viability of 0.312.
HCC-366 gave a relative viability of 0.0949.
